Measurements reported in patent US9974760B2, “Compositions and methods for treating cancer” (Chemo-Enhanced LLC, priority 2011, dated 2018).

Tested on: Gab1
Assay: Gab1 activation in wildtype and Gab1 knockout MEFs
Format: cell-based
Settings: wildtype vs Gab1 knockout MEFs
Excerpt: One of the most studied scaffold proteins for AKT activation is Gab1. Physical association between p85 and Gab1 is crucial in mediating the PI3K/AKT signaling pathway induced by a variety of stimuli. […] It is believed that that Gab1 is a key adaptor for taxol and gemcitabine induced PI3K/AKT/mTOR activation and chemoresistance response. To confirm this rationale, wildtype and Gab1 knockout MEFs and Gab1 siRNA can be used to test taxol and gemcitabine induced PI3K/AKT/mTOR and cell death. Interaction between Gab1 and p85 after Taxol and Gemcitabine treatment can also be tested in L3.6 cells.

CC(=O)O[C@H]1C(=O)[C@@]2(C)[C@H]([C@H](OC(=O)c3ccccc3)[C@]3(O)C[C@H](OC(=O)[C@H](O)[C@@H](NC(=O)c4ccccc4)c4ccccc4)C(C)=C1C3(C)C)[C@]1(OC(C)=O)CO[C@@H]1C[C@@H]2O [paclitaxel]
Gab1 activation: induces Gab1 activation in wildtype but not Gab1 knockout MEFs
